“And” between values parts separate entries of the source, which are not always exact repeats. Equal values may be shown once.
Tests used:
NIH/3T3 cells = test: MTT assay (mitochondrial activity), murine fibroblasts
Method: NIH/3T3 (ATCC CRL-1658) mouse embryonic fibroblasts were grown in Dulbecco’s modified Eagle’s medium (DMEM) supplemented with 2 mM glutamine, 10 % foetal bovine serum and a 1 % antibiotic-antimycotic solution at 37 °C in a humidified atmosphere with 5 % CO2.
NIH/3T3 and BF-2 cells were seeded in 96-well plates at a density of 1 × 10^4 or 2 × 10^4 cells per well, respectively. After 24 h of incubation at an appropriate temperature, cells were exposed to betulin at the concentrations mentioned above for 24, 48 and 72 h. Control (untreated) cells served as the negative control and a reference point. Triton X-100 treated cells served as the positive internal control in MTT, NRU and LDH assays. Due to the specific character of SRB assay, there was no positive control in this test. After 24, 48 and 72 h of treatment, the four different cytotoxicity assays were performed. All experiments were repeated three times.
The MTT assay is used to estimate mitochondrial damage, since it determines the activity of mitochondrial enzymes. These enzymes reduce the water-soluble tetrazolium dye MTT to insoluble purple formazan, which accumulates inside viable cells.
The MTT assay was conducted using the protocol described by Mosmann, with some modifications described in our previous article.
The MTT assay was used to determine the cytotoxicity of both betulin and the vehicle (DMSO).
All experiments were repeated three times. […] Statistical analyses were performed using GraphPad Prism software (GraphPad Software, USA). Data were subjected to one-way analysis of variance (ANOVA). Dunnett’s posttest was used to determine differences between control and betulin-exposed cells at the same time points. Differences between the two cell lines at the same time points were determined using Student’s t-test. The 50 % cytotoxic concentrations (CC50, defined as the concentration of the compound that reduced cell viability by 50 %) were calculated using the Quest Graph™ ED50 Calculator (AAT Bioquest, Inc.).

BF-2 cells = test: MTT assay (mitochondrial activity), fish fibroblasts; format: cell-based, bluegill
Method: BF-2 (ATCC CCL-91) bluegill caudal trunk fibroblasts were grown in minimum essential medium (Eagle, EBSS) supplemented with 1 % nonessential amino acids (NEAAs), 10 % foetal bovine serum and 1 % antibiotic-antimycotic solution at 23 °C in a humidified atmosphere with 5 % CO2.
All experiments were repeated three times.

[1] = tested on: murine Balb/3T3 fibroblasts; set-up: method as in PMID 16112835; conditions: Balb/3T3, MTT assay; cited from earlier work
[2] = tested on: GSF3.2 goat skin fibroblasts; set-up: method as in earlier work; conditions: GSF3.2, trypan blue; cited from earlier work

## C[S+](C)[O-] [DMSO, Dimethyl sulfoxide]
NIH/3T3 cells; NIH/3T3, 24 h, mean ± SD, n = 3
  CC50 DMSO (MTT) 24 h: 2.989 ± 0.159%
NIH/3T3 cells; NIH/3T3, 48 h, mean ± SD, n = 3
  CC50 DMSO (MTT) 48 h: 2.374 ± 0.395%
NIH/3T3 cells; NIH/3T3, 72 h, mean ± SD, n = 3
  CC50 DMSO (MTT) 72 h: 1.635% and 1.635 ± 0.423%
NIH/3T3 cells; NIH/3T3, concentration at which viability exceeded 90 % throughout the experiment
  maximum tolerable DMSO concentration: 0.625%
NIH/3T3 cells; murine fibroblasts, MTT
  DMSO concentration with absence of any measurable activity of mitochondria: 10%
BF-2 cells; BF-2, 24 h, mean ± SD, n = 3
  CC50 DMSO (MTT) 24 h: 5.031 ± 0.423%
BF-2 cells; BF-2, 48 h, mean ± SD, n = 3
  CC50 DMSO (MTT) 48 h: 4.434 ± 0.717%
BF-2 cells; BF-2, 72 h, mean ± SD, n = 3
  CC50 DMSO (MTT) 72 h: 4.794% and 4.794 ± 0.337%
BF-2 cells; BF-2, concentration at which viability exceeded 90 % throughout the experiment
  maximum tolerable DMSO concentration: 1.25%
BF-2 cells; fish fibroblasts, MTT
  DMSO concentration with absence of any measurable activity of mitochondria: 20%
[1]
  IC50 of DMSO: 2.75%
[2]
  DMSO concentrations giving significant increase in the number of live cells: less than 0.1%

Reference: publication PMC8152350, “High cytotoxicity of betulin towards fish and murine fibroblasts: Is betulin safe for nonneoplastic cells?” (BMC Veterinary Research, 2021)
